Laboratory results taken from the kinase profiling compilation of Christmann-Franck et al. (2016).

How the values were obtained:
Assay in all cases: radiometric filter-binding kinase assay, Kinase HotSpot
Settings in all cases: compound 0.5 µM; ATP 10 µM
[1] = target: ROCK2 (human) (UniProt O75116)
[2] = target: HIPK4 (human) (UniProt Q8NE63)
[3] = target: MAPK10 (human) (UniProt P53779)
[4] = target: PLK2 (human) (UniProt Q9NYY3)
[5] = target: CAMK1D (human) (UniProt Q8IU85)
[6] = target: CHEK2 (human) (UniProt O96017)
[7] = target: NTRK2 (human) (UniProt Q16620)
[8] = target: PRKD1 (human) (UniProt Q15139)
[9] = target: CSNK1G2 (human) (UniProt P78368)
[10] = target: CDK1 CCNB1 (human) (UniProt P06493+P14635)
[11] = target: ADRBK2 (human) (UniProt P35626)
[12] = target: PTK6 (human) (UniProt Q13882)
[13] = target: CLK2 (human) (UniProt P49760)
[14] = target: WNK2 (human) (UniProt Q9Y3S1)
[15] = target: STK25 (human) (UniProt O00506)
[16] = target: NTRK3 (human) (UniProt Q16288)
[17] = target: MAPK8 (human) (UniProt P45983)
[18] = target: MATK (human) (UniProt P42679)
[19] = target: PAK6 (human) (UniProt Q9NQU5)
[20] = target: MAP3K14 (human) (UniProt Q99558)
[21] = target: ALK (human) (UniProt Q9UM73)
[22] = target: RPS6KA3 KD1 KD2 (human) (UniProt P51812)
[23] = target: CDK6 CCND3 (human) (UniProt P30281+Q00534)
[24] = target: NUAK2 (human) (UniProt Q9H093)
[25] = target: EPHA2 (human) (UniProt P29317)
[26] = target: PRKCZ (human) (UniProt Q05513)
[27] = target: TTK (human) (UniProt P33981)
[28] = target: MAPK13 (human) (UniProt O15264)
[29] = target: EPHA5 (human) (UniProt P54756)
[30] = target: FER (human) (UniProt P16591)
[31] = target: FGR (human) (UniProt P09769)
[32] = target: NUAK1 (human) (UniProt O60285)
[33] = target: AKT3 (human) (UniProt Q9Y243)
[34] = target: TYRO3 (human) (UniProt Q06418)
[35] = target: GRK5 (human) (UniProt P34947)
[36] = target: PTK2B (human) (UniProt Q14289)
[37] = target: PRKCB2 (human) (UniProt P05771)
[38] = target: CSF1R (human) (UniProt P07333)
[39] = target: PRKCB1 (human) (UniProt P05771)
[40] = target: IKBKE (human) (UniProt Q14164)
[41] = target: CDK1 CCNA2 (human) (UniProt P06493+P20248)
[42] = target: MAPK14 (human) (UniProt Q16539)

Chain of MAP3K14 (human) (Q99558 whole entry, looked up): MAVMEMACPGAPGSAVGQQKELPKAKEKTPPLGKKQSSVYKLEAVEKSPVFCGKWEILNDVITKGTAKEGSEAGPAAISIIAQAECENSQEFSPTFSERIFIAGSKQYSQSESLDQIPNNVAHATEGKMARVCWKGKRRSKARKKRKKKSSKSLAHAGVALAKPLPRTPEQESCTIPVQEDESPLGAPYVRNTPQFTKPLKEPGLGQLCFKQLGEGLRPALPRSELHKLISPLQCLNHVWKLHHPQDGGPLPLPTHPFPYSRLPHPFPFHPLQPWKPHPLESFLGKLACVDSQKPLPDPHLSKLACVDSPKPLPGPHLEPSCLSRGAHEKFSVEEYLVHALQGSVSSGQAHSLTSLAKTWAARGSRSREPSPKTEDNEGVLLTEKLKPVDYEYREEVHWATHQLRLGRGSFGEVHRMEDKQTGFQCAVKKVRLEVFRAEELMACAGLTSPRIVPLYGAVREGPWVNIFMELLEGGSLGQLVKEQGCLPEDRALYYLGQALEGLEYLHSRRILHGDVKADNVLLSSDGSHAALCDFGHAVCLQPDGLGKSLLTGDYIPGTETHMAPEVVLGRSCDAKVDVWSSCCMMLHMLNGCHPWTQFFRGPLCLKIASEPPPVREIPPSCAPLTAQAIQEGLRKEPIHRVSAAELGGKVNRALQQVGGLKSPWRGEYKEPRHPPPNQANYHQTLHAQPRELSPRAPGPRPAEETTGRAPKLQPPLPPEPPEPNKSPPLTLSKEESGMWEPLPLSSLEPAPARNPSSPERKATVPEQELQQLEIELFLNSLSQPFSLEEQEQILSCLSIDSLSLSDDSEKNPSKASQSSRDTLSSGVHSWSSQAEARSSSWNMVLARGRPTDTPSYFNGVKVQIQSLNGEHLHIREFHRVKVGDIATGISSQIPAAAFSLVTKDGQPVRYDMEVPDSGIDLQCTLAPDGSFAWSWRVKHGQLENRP
Chain of ALK (human) (Q9UM73 whole entry, looked up): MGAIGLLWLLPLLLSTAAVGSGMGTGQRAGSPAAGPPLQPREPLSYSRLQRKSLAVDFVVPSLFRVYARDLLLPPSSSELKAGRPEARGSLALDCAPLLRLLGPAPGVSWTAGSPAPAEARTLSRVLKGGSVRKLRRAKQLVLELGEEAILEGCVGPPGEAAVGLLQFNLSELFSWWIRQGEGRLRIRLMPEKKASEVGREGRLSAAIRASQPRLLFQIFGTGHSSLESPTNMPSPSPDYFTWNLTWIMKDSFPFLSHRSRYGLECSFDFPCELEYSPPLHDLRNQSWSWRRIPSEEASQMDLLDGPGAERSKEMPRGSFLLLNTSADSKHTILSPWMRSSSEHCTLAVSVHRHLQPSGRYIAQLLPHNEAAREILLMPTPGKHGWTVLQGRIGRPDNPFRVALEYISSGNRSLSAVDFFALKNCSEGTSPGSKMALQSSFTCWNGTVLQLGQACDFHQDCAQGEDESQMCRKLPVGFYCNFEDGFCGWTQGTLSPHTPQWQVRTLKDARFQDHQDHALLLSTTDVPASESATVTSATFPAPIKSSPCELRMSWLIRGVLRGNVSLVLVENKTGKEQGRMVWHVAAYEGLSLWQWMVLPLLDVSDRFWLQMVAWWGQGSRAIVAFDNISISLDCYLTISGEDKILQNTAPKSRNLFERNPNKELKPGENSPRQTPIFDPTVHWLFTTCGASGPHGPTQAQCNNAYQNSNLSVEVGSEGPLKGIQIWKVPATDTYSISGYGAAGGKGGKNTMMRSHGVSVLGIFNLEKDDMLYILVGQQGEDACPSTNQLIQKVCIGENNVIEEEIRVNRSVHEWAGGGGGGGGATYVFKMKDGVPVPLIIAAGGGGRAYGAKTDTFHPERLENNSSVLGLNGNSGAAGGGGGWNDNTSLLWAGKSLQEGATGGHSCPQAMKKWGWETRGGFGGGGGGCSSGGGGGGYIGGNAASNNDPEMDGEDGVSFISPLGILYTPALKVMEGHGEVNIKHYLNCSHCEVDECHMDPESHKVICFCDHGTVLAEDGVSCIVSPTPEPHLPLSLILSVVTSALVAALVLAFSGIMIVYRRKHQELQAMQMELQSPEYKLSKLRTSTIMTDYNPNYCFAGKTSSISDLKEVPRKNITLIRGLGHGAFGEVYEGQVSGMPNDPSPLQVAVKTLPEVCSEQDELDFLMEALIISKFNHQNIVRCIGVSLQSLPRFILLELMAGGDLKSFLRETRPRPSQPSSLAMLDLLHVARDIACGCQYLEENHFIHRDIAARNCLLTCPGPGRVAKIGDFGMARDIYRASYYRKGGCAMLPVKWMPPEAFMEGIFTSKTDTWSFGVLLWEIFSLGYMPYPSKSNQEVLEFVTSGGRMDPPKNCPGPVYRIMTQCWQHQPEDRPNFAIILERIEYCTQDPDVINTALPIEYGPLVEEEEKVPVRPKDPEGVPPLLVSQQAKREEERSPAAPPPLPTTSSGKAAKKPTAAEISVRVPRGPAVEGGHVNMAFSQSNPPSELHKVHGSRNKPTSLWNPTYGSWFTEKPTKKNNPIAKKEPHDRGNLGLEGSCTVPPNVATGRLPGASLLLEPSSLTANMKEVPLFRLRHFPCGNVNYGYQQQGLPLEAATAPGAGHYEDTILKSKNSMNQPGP
Chain of CAMK1D (human) (Q8IU85 whole entry, looked up): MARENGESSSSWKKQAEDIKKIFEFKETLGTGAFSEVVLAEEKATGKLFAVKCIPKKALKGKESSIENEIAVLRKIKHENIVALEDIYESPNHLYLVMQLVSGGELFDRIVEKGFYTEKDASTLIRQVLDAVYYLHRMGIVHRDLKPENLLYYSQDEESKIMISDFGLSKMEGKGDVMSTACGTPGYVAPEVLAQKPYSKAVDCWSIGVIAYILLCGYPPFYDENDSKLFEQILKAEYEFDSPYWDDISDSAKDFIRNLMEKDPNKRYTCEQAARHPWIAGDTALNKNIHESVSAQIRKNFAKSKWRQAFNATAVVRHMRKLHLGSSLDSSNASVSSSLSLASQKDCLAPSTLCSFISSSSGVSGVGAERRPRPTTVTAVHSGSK
Chain of EPHA5 (human) (P54756 whole entry, looked up): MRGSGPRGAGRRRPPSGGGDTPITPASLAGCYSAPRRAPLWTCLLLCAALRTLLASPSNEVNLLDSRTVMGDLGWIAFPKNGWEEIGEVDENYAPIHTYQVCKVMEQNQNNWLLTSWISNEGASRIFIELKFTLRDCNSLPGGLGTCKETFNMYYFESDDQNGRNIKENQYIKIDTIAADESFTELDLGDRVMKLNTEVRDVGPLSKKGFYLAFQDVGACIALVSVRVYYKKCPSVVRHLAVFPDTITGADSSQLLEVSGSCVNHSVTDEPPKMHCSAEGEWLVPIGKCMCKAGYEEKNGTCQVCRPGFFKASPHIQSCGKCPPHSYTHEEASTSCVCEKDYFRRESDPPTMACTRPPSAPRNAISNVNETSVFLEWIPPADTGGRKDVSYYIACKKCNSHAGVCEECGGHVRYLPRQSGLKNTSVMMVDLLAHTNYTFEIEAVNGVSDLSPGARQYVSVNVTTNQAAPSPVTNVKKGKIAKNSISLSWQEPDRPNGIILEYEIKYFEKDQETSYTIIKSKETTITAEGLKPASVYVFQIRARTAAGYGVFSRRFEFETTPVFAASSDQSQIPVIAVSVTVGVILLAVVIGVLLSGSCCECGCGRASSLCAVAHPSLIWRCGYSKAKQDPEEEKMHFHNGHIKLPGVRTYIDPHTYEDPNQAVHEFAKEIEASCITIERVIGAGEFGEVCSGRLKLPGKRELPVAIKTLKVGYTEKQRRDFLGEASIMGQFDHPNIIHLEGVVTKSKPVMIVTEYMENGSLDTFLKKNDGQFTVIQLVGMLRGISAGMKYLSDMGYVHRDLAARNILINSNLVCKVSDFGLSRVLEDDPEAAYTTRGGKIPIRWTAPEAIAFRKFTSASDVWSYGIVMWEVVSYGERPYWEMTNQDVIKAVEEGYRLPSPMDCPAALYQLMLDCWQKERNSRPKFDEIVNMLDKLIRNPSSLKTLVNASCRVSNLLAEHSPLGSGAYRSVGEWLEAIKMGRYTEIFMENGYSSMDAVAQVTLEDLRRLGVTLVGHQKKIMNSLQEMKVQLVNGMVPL
Chain of MATK (human) (P42679 whole entry, looked up): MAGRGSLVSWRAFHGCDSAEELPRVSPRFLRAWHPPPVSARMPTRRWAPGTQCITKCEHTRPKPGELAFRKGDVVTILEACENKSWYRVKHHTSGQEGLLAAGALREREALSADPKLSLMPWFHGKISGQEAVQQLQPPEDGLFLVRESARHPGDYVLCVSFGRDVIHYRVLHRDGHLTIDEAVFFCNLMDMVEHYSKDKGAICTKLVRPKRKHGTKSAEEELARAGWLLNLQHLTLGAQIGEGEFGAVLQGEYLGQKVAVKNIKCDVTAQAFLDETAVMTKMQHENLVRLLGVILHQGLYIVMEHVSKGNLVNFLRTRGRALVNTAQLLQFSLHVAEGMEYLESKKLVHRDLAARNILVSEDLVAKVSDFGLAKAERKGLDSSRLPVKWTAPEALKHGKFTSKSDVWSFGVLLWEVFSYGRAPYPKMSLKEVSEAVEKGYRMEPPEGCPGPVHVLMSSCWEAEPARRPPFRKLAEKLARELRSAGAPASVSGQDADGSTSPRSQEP
Chain of CSNK1G2 (human) (P78368 whole entry, looked up): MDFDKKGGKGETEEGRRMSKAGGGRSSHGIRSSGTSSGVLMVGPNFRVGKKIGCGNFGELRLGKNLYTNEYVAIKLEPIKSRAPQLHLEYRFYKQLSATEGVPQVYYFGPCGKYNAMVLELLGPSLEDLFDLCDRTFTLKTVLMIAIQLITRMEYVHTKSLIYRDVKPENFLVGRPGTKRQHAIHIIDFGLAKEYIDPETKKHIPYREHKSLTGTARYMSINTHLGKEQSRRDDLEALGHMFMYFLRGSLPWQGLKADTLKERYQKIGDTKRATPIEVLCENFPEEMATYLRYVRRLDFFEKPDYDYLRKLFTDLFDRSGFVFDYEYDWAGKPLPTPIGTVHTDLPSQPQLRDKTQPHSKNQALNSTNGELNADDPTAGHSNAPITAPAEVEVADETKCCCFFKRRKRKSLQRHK

## CCN(CC)CCCCN1c2ccccc2Oc2ccc(Cl)cc21
[1]
  residual activity: 104%
[2]
  residual activity: 99.2%
[3]
  residual activity: 104%
[4]
  residual activity: 103%
[5]
  residual activity: 107%
[6]
  residual activity: 105%
[7]
  residual activity: 102%
[8]
  residual activity: 101%
[9]
  residual activity: 103%
[10]
  residual activity: 96.8%
[11]
  residual activity: 87.5%
[12]
  residual activity: 95%
[13]
  residual activity: 105%
[14]
  residual activity: 119%
[15]
  residual activity: 92.6%
[16]
  residual activity: 103%
[17]
  residual activity: 89.7%
[18]
  residual activity: 99.9%
[19]
  residual activity: 102%
[20]
  residual activity: 95.6%
[21]
  residual activity: 106%
[22]
  residual activity: 98.6%
[23]
  residual activity: 102%
[24]
  residual activity: 90.9%
[25]
  residual activity: 106%
[26]
  residual activity: 105%
[27]
  residual activity: 104%
[28]
  residual activity: 94.3%
[29]
  residual activity: 109%
[30]
  residual activity: 102%
[31]
  residual activity: 101%
[32]
  residual activity: 90.7%
[33]
  residual activity: 103%
[34]
  residual activity: 103%
[35]
  residual activity: 103%
[36]
  residual activity: 99.6%
[37]
  residual activity: 102%
[38]
  residual activity: 97.8%
[39]
  residual activity: 101%
[40]
  residual activity: 102%
[41]
  residual activity: 99.3%
[42]
  residual activity: 95.8%

## Cn1nc2c3c(cccc31)C(=O)c1ccccc1-2
[1]
  residual activity: 92.3%
[2]
  residual activity: 102%
[3]
  residual activity: 97.3%
[4]
  residual activity: 93.5%
[5]
  residual activity: 70.3%
[6]
  residual activity: 89.8%
[7]
  residual activity: 84%
[8]
  residual activity: 69.3%
[9]
  residual activity: 91.5%
[10]
  residual activity: 108%
[11]
  residual activity: 93.6%
[12]
  residual activity: 91.8%
[13]
  residual activity: 94.5%
[14]
  residual activity: 104%
[15]
  residual activity: 96.5%
[16]
  residual activity: 71.6%
[17]
  residual activity: 87.2%
[18]
  residual activity: 88%
[19]
  residual activity: 98.6%
[20]
  residual activity: 107%
[21]
  residual activity: 87.4%
[22]
  residual activity: 97.3%
[23]
  residual activity: 101%
[24]
  residual activity: 85.7%
[25]
  residual activity: 104%
[26]
  residual activity: 97.9%
[27]
  residual activity: 77.7%
[28]
  residual activity: 106%
[29]
  residual activity: 126%
[30]
  residual activity: 99.2%
[31]
  residual activity: 93.4%
[32]
  residual activity: 46.2%
[33]
  residual activity: 102%
[34]
  residual activity: 99.8%
[35]
  residual activity: 93.8%
[36]
  residual activity: 102%
[37]
  residual activity: 97.8%
[38]
  residual activity: 97%
[39]
  residual activity: 94.7%
[40]
  residual activity: 92.3%
[41]
  residual activity: 88%
[42]
  residual activity: 93.6%
